Experimental data: ChEMBL document CHEMBL1201862, “PubChem BioAssay data set” (2004)
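Compound exposure: 48 hours, 5 concentrations, 96-well plates. GI50 is the concentration that inhibits growth by half.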 The source made the active and inactive calls. No stated cut-off is given here; in the data, active = GI50 up to about 1.1 µM and inactive = higher.

Columns and labels:
Test in all cases: NCI-60 cell line screen, 48 h
NCI-H460 = system: NCI-H460
LOX IMVI = system: LOX IMVI
SK-MEL-5 = system: SK-MEL-5
HCT-15 = system: HCT-15
SK-OV-3 = system: SK-OV-3
IGROV-1 = system: IGROV-1
NCI-H226 = system: NCI-H226
UACC-62 = system: UACC-62
UO-31 = system: UO-31
M14 = system: M14
U-251 = system: U-251
OVCAR-3 = system: OVCAR-3
SNB-75 = system: SNB-75
SF-268 = system: SF-268
SF-539 = system: SF-539
MOLT-4 = system: MOLT-4
TK-10 = system: TK-10
HT-29 = system: HT-29
OVCAR-8 = system: OVCAR-8
NCI-H23 = system: NCI-H23

Row | SMILES | GI50 (NCI-H460) | GI50 (LOX IMVI) | GI50 (SK-MEL-5) | GI50 (HCT-15) [µM] | GI50 (SK-OV-3) | GI50 (IGROV-1) | GI50 (NCI-H226) | GI50 (UACC-62) | GI50 (UO-31) | GI50 (M14) | GI50 (U-251) | GI50 (OVCAR-3) | GI50 (SNB-75) | GI50 (SF-268) | GI50 (SF-539) | GI50 (MOLT-4) | GI50 (TK-10) | GI50 (HT-29) | GI50 (OVCAR-8) | GI50 (NCI-H23)
1 | N#CCCC1C(C#N)C2(Cl)CC1(Cl)C(Cl)=C2Cl (stereo not given) | > 10 µM (inactive) | > 10 µM (inactive) | > 10 µM (inactive) | > 10 | > 10 µM (inactive) | > 10 µM (inactive) | > 10 µM (inactive) | > 10 µM (inactive) | > 10 µM (inactive) | > 10 µM (inactive) | > 10 µM (inactive) | > 10 µM (inactive) | > 10 µM (inactive) | > 10 µM (inactive) | > 10 µM (inactive) | > 10 µM (inactive) | > 10 µM (inactive) | > 10 µM (inactive) | > 10 µM (inactive) | > 10 µM (inactive)
2 | CC1(C)CCc2cc3c(-c4ccccc4)cc(=O)oc3cc2O1 | > 100 µM (inactive) | > 100 µM (inactive) | > 100 µM (inactive) | > 100 | > 100 µM (inactive) | > 100 µM (inactive) | > 100 µM (inactive) | > 100 µM (inactive) | > 100 µM (inactive) | > 100 µM (inactive) | > 100 µM (inactive) | > 100 µM (inactive) | 13.7 µM (inactive) | > 100 µM (inactive) | 38.5 µM (inactive) | > 100 µM (inactive) | > 100 µM (inactive) | > 100 µM (inactive) | > 100 µM (inactive) | > 100 µM (inactive)
3 | COC(c1ccc(C(C)(C)C)cc1)(c1ccc(C(C)(C)C)cc1)c1cc(C(O)(c2cc(C(OC)(c3ccc(C(C)(C)C)cc3)c3ccc(C(C)(C)C)cc3)c(C)cc2C)c2cc(C(OC)(c3ccc(C(C)(C)C)cc3)c3ccc(C(C)(C)C)cc3)c(C)cc2C)c(C)cc1C | > 100 µM (inactive) | > 100 µM (inactive) | > 100 µM (inactive) | > 100 | > 100 µM (inactive) | > 100 µM (inactive) | 92.5 µM (inactive) | > 100 µM (inactive) | > 100 µM (inactive) | > 100 µM (inactive) | > 100 µM (inactive) | > 100 µM (inactive) | 28.3 µM (inactive) | > 100 µM (inactive) | > 100 µM (inactive) | > 100 µM (inactive) | > 100 µM (inactive) | > 100 µM (inactive) | > 100 µM (inactive) | > 100 µM (inactive)
